Measured values: patent publication US8629127B2, “Compositions and methods of treatment for inflammatory diseases” (The Board of Regents of the University of Oklahoma, priority 2004, dated 2014)

Assays:
TNBS-induced colitis [1] = test: Macroscopic assessment of TNBS-induced colitis; format: in vivo, rat; conditions: scale 0-6
Source text: Male Sprague Dawley rats (200-250 grams) were housed in cages containing contact bedding. Rats were deprived of food for 24 hrs prior to the induction of colitis, but were allowed free access to water throughout the experiment. Institutional approval for experimental protocols was provided by the research and animal care committees of the research services at the Oklahoma City Veterans Administration Medical Center.
(§1) Following a 24 hr fast, rats were lightly anesthetized using isoflurane followed by insertion of a polyethylene catheter into the anus. The tip of the catheter was advanced 8 cm proximal from the anus and a single dose of TNBS (Sigma, St. Louis, Mo.), dissolved in 50% ethanol, was injected through the cannula (15 mg dissolved in a 0.6 ml volume of 50% ethanol) to induce colitis. Following the administration of TNBS the animals were maintained in a head-down position for approximately 60 seconds to prevent leakage of the infusate. After 72 hrs, rats dosed initially with TNBS were randomly assigned to one of four treatment groups to receive daily intracolonic therapy in a manner similar to that used for TNBS administration. […] An additional group of rats (Group E) served as control and received saline per rectum on day 0 and at subsequent intervals that corresponded to treatment protocols. Rats were treated for either 5 or 8 days and then sacrificed by cervical dislocation. FIG. 1 illustrates the design of these experiments.
Upon sacrifice, the distal 8 cm of the colon was removed, opened by a longitudinal incision and rinsed with phosphate buffered saline to remove fecal material. Macroscopic assessment of colitis was carried out by an independent observer who was unaware of the treatment groups. Inflammation was present if the mucosa was erythematous. Ulceration of the mucosa was defined as a distinct break or interruption of the mucosa. Once macroscopic damage was assessed full thickness colonic tissue samples were taken from the inflamed areas and either processed for histology or snap frozen in liquid nitrogen for subsequent cytokine measurement and determination of myeloperoxidase (MPO) activity.

TNBS-induced colitis [2] = test: Histological assessment of TNBS-induced colitis; format: in vivo, rat; conditions: for Cumulative (aggregate) microscopic colitis injury score: 8 days after TNBS, 5-day treatment, scale 0-15; for Decrease in aggregate microscopic injury score: 11 days after TNBS, 8-day treatment, vs TNBS alone
Source text: Male Sprague Dawley rats (200-250 grams) were housed in cages containing contact bedding. Rats were deprived of food for 24 hrs prior to the induction of colitis, but were allowed free access to water throughout the experiment. Institutional approval for experimental protocols was provided by the research and animal care committees of the research services at the Oklahoma City Veterans Administration Medical Center. Following a 24 hr fast, rats were lightly anesthetized using isoflurane followed by insertion of a polyethylene catheter into the anus. The tip of the catheter was advanced 8 cm proximal from the anus and a single dose of TNBS (Sigma, St. Louis, Mo.), dissolved in 50% ethanol, was injected through the cannula (15 mg dissolved in a 0.6 ml volume of 50% ethanol) to induce colitis. Following the administration of TNBS the animals were maintained in a head-down position for approximately 60 seconds to prevent leakage of the infusate. After 72 hrs, rats dosed initially with TNBS were randomly assigned to one of four treatment groups to receive daily intracolonic therapy in a manner similar to that used for TNBS administration. […] An additional group of rats (Group E) served as control and received saline per rectum on day 0 and at subsequent intervals that corresponded to treatment protocols. Rats were treated for either 5 or 8 days and then sacrificed by cervical dislocation. FIG. 1 illustrates the design of these experiments. Colonic tissue samples taken from the initial segment were immersed in 10% phosphate buffered formalin and subsequently embedded in paraffin. Sections of 3 micron thickness were cut and stained with hematoxylin and eosin. The slides were then evaluated by a pathologist for epithelial damage, architectural changes, mononuclear infiltration, polymorphonuclear leukocyte (PMN) infiltration and ulceration. The individual microscopic features of colitis were graded according to criteria noted in Table 2. In addition to scoring individual features of colitis, an aggregate score of colitis was tabulated by adding together individual scores, thus, providing a global assessment of colitis. [table]

Myeloperoxidase activity = Myeloperoxidase activity in colon tissue, TNBS colitis; format: in vivo, rat; conditions: 11 days after TNBS; 8-day treatment
Description: as §1, with “experiments. Myeloperoxidase activity was used as an indirect measure of the severity of colonic inflammation by PMNs. […] C. The tissues were then removed from storage at −80° C. and allowed to thaw on ice. […] The absorbance changes were read at 450 nm and recorded. Results were expressed as ng/ml/g of tissue.” for “experiments.”

IL-1A = test: Cytokine gene expression in rat colon (RPA), TNBS colitis; format: in vivo; conditions: 11 days after TNBS, 8-day treatment
Description: (§2) Following a 24 hr fast, rats were lightly anesthetized using isoflurane followed by insertion of a polyethylene catheter into the anus. The tip of the catheter was advanced 8 cm proximal from the anus and a single dose of TNBS (Sigma, St. Louis, Mo.), dissolved in 50% ethanol, was injected through the cannula (15 mg dissolved in a 0.6 ml volume of 50% ethanol) to induce colitis. Following the administration of TNBS the animals were maintained in a head-down position for approximately 60 seconds to prevent leakage of the infusate. After 72 hrs, rats dosed initially with TNBS were randomly assigned to one of four treatment groups to receive daily intracolonic therapy in a manner similar to that used for TNBS administration. […] An additional group of rats (Group E) served as control and received saline per rectum on day 0 and at subsequent intervals that corresponded to treatment protocols. Rats were treated for either 5 or 8 days and then sacrificed by cervical dislocation. FIG. 1 illustrates the design of these experiments. Following the manufacturer's protocol, 1 ml of TRI Reagent (Sigma, St. Louis, Mo.) is used per 100 mg of tissue. The frozen tissue is placed into the TRI Reagent and immediately homogenized using a tissue macerator. The homogenates are transferred to microcentrifuge tubes and 0.2 ml of chloroform is added per ml of TRI Reagent used. The samples are shaken thoroughly and allowed to sit at room temp for 3 min. Samples were then centrifuged at 12000×g for 15 min at […]. After centrifugation, the upper aqueous phase was transferred to a new tube and […] of 2-propanol is added to precipitate the RNA. After sitting at room temp for 10 min. the samples are centrifuged at 12000×g for 15 min. The supernatants are discarded and the pellets are washed in 70% ethanol followed by centrifugation at 12000×g for 5 min. The ethanol was removed and the pellets are dissolved in 50 μl of DEPC treated water per sample. Quantitation is performed by spectrophotometry at 260 nm and 280 nm. RPA analysis was performed with RiboQuant™ multi-probe RNase protection assay system (BD Biosciences-Pharmingen, San Diego, Calif.). To 20 μg of total RNA in 8 μl of hybridization buffer and 2 μl of ^32P-labeled in vitro transcribed RNA probes were added. The probes were transcribed from the multiprobe template set rCK-1 which as a panel of probes against IL-1a, IL-1b, IL-3, IL-5, IL-10, IL-2, TNFα, TNBβ, GAPDH genes. Probes were prepared according to the manufactures protocol. The RNA samples containing labeled probes were incubated briefly at 90° C., slowly cooled to 56° C. and hybridized overnight at that temperature. The samples were then slowly cooled to 30° C. Thereafter, a mixture of RNases A and T1 was added to digest single-stranded RNA leaving the double-stranded RNA formed by the probes annealing to their cognate mRNAs intact. Following proteinase K digestion and phenol-chloroform extraction, the undigested double-stranded RNA was precipitated with ammonium acetate and ethanol. […] The ethanol was removed and the pellets were dissolved in 5 μl of formamide loading dye. The double-stranded RNAs were resolved on a 5% polyacrylamide/urea gel run in TBE buffer. After electrophoresis, the gel was dried at 80° C. under vacuum and then exposed to a PhosphorImager screen overnight. Detection and quantitation of the resolved bands on the gel were performed on a Storm PhosphorImager™ system (Amersham Biosciences, Piscataway, N.J.).

IL-1B = test: as above; format: in vivo; conditions: 11 days after TNBS, 8-day treatment
Description: as §2

IL-4 = test: as above; format: in vivo; conditions: 11 days after TNBS, 8-day treatment
Description: as §2

IL-6 = test: as above; format: in vivo; conditions: 11 days after TNBS, 8-day treatment
Description: as §2

TNF-α = test: as above; format: in vivo; conditions: 11 days after TNBS, 8-day treatment
Description: as §2

DSS-induced colitis = test: Histological assessment of DSS-induced colitis; format: in vivo, rat; conditions: DSS colitis (4% DSS, 4 days); 4-day intracolonic treatment; maximal score 12
Source text: Male Sprague Dawley rats (200-250 grams) were housed in cages containing contact bedding. Rats were deprived of food for 24 hrs prior to the induction of colitis, but were allowed free access to water throughout the experiment. Institutional approval for experimental protocols was provided by the research and animal care committees of the research services at the Oklahoma City Veterans Administration Medical Center. Colitis was induced by oral administration of a 4% solution of DSS (dextran sulfate sodium) in drinking water for 4 days. […] Animals received treatment for 4 days. Macroscopic indices of colonic injury were scored and tabulated. Histological features that were examined included epithelial damage and mucosal ulceration. Additional measures included determination of serum C-reactive protein (CRP) levels and cytokine gene expression in colonic tissues performed by ribonuclease protection assay (RPA). Colonic tissue samples taken from the initial segment were immersed in 10% phosphate buffered formalin and subsequently embedded in paraffin. Sections of 3 micron thickness were cut and stained with hematoxylin and eosin. The slides were then evaluated by a pathologist for epithelial damage, architectural changes, mononuclear infiltration, polymorphonuclear leukocyte (PMN) infiltration and ulceration. […]

[3] = patients with inflammatory bowel disease; cited from earlier work
[4] = 8 days after TNBS, 5-day intracolonic treatment, 5-ASA 100 mg/kg, NAC 40 mM
[5] = 11 days after TNBS, 8-day intracolonic treatment

Structure (SMILES)	Macroscopic injury score (TNBS-induced colitis [1]; [4])	Macroscopic injury score (TNBS-induced colitis [1]; [5])	Cumulative (aggregate) microscopic colitis injury score (TNBS-induced colitis [2])	Decrease in aggregate microscopic injury score (TNBS-induced colitis [2]) [%]	Reduction of MPO activity below TNBS values (Myeloperoxidase activity) [%]	IL-1A gene expression, Mean ± SEM (IL-1A) [Relative O.D units]	IL-1B gene expression, Mean ± SEM (IL-1B) [Relative O.D units]	IL-4 gene expression, Mean ± SEM (IL-4) [Relative O.D units]	IL-6 gene expression, Mean ± SEM (IL-6) [Relative O.D units]	TNF-α gene expression, Mean ± SEM (TNF-α) [Relative O.D units]	Aggregate microscopic injury score (DSS-induced colitis)	Patients who cannot tolerate this medication (side effects) [3]
CC(=O)N[C@@H](CS)C(=O)O [NAC, N-acetylcysteine]	4.1±0.6	1.2±0.2	9.0±1.8	53	40	1.28 ± 0.16	11.88 ± 1.0	1.20 ± 0.26	0.76 ± 0.14	1.04 ± 0.017	4.0±1.1	–
Nc1ccc(O)c(C(=O)O)c1 [5-ASA, 5-aminosalicylic acid]	3.0±0.7	1.8±0.2	9.0±0.9	46	32	1.33 ± 0.18	11.49 ± 2.54	1.40 ± 0.25	0.79 ± 0.22	1.25 ± 0.12	4.1±0.9	–
O=C(O)c1cc(/N=N/c2ccc(S(=O)(=O)Nc3ccccn3)cc2)ccc1O [sulfasalazine]	–	–	–	–	–	–	–	–	–	–	–	up to one third
